# Assay results published in patent publication US20190327961A1, “STABLE SOLID COMPOSITION BASED ON AN AROMATIC COMPOUND AND USES THEREOF” (priority 2016, published 2019).
# How the values were obtained:
# E. coli [1] = assay: Disinfection of an artificially contaminated fibroscope; conditions: fibroscope contaminated with E. coli, disinfectant at (1/10)
# E. coli [2] = assay: Antibacterial action compared with glutaraldehyde in 96-well microplates; assay type: cell-based; conditions: for bacterial growth (optical density, 600-nm wavelength): E. coli, 37° C., 24 hours
# rot of clementines [3] = assay: Tracking of the rot rate of clementines in a packing station; assay type: in vivo, clementines (Afourar variety)
# Penicillium digitatum = assay: Drenching and waxing of clementines infected by injection of spores; assay type: in vivo, clementines (Afourar variety); conditions: fruits waxed only (batches 3 and 4)
# rot of clementines [4] = assay: Drenching and waxing of non-infected, experimentally damaged clementines; assay type: in vivo, clementines (Afourar variety); conditions: washed then waxed, 27° C.
compound,measurement,setting,value
"O=CCCCC=O [Glutaraldehyde, glutaraldehyde]",bacterial load After Disinfection,E. coli [1],Layers
same,bacterial load After Disinfection,E. coli [1]; listed as glutaraldehyde,layer of bacteria
same,inhibiting minimal concentration (CMI),"E. coli [2]; E. coli suspension on the order of 10^8 UFC/ml, expressed as dilution",obtained only with the pure disinfectant
same,"bacterial growth (optical density, 600-nm wavelength)",E. coli [2]; concentration 1,0
same,"bacterial growth (optical density, 600-nm wavelength)",E. coli [2]; concentration 1/10,0.13 ± 0.002
same,"bacterial growth (optical density, 600-nm wavelength)",E. coli [2]; concentration 1/100,0.15 ± 0.002
same,"bacterial growth (optical density, 600-nm wavelength)",E. coli [2]; concentration 1/250,0.17 ± 0.003
same,"bacterial growth (optical density, 600-nm wavelength)",E. coli [2]; concentration 1/500,0.20 ± 0.002
same,"bacterial growth (optical density, 600-nm wavelength)",E. coli [2]; concentration 1/750,0.20 ± 0.002
same,"bacterial growth (optical density, 600-nm wavelength)","E. coli [2]; concentration 1/1,000",0.22 ± 0.012
same,"bacterial growth (optical density, 600-nm wavelength)","E. coli [2]; concentration 1/2,000",0.28 ± 0.035
same,"bacterial growth (optical density, 600-nm wavelength)","E. coli [2]; concentration 1/4,000",0.34 ± 0.007
same,"bacterial growth (optical density, 600-nm wavelength)","E. coli [2]; concentration 1/8,000",0.47 ± 0.034
same,"bacterial growth (optical density, 600-nm wavelength)","E. coli [2]; concentration 1/16,000",0.50 ± 0.005
C=CCOC(Cn1ccnc1)c1ccc(Cl)cc1Cl (stereo not shown) [imazalil],Percentage of Rotten Fruits,"rot of clementines [3]; Storage at 8° C., Week 1",2.63%
same,Percentage of Rotten Fruits,"rot of clementines [3]; Storage at 8° C., Week 2",1.35%
same,Percentage of Rotten Fruits,"rot of clementines [3]; Storage at 8° C., Week 3",2.16%
same,Percentage of Rotten Fruits,"rot of clementines [3]; Storage at 8° C., Week 4",4.67%
same,Percentage of Rotten Fruits,"rot of clementines [3]; Storage at 25° C., Week 1",7.78%
same,Percentage of Rotten Fruits,"rot of clementines [3]; Storage at 25° C., Week 2",6.91%
same,Percentage of Rotten Fruits,"rot of clementines [3]; Storage at 25° C., Week 3",9.68%
same,Percentage of Rotten Fruits,"rot of clementines [3]; Storage at 25° C., Week 4",8.43%
same,day after infection on which rot begins,"Penicillium digitatum; P. digitatum injected, 20° C.",starting from the fourth day
same,diameter of the rot,Penicillium digitatum; after 7 days,2.55 cm
same,Percentage of the Rotten Surface on the Fruits,rot of clementines [4]; 4 D,0%
same,Percentage of the Rotten Surface on the Fruits,rot of clementines [4]; 6 D,7%
same,Percentage of the Rotten Surface on the Fruits,rot of clementines [4]; 8 D,11%
same,Percentage of the Rotten Surface on the Fruits,rot of clementines [4]; 10 D,17%
same,Percentage of the Rotten Surface on the Fruits,rot of clementines [4]; 12 D,29%
same,Percentage of the Rotten Surface on the Fruits,rot of clementines [4]; 14 D,38%
same,Percentage of the Rotten Surface on the Fruits,rot of clementines [4]; 16 D,44%
